# pIC50: −log10 of the molar value.
# How the values were obtained:
# [1] = test system: matrix metalloproteinase-2; test: RT-PCR, MMP-2 gene expression in HT 1080 cells; format: cell-based, Human
# Protocol: 7. RNA Extraction and Reverse Transcription-Polymerase Chain Reaction (RT-PCR)
# HT 1080 cells with appropriate cell numbers were cultured in 60 mm culturing plates for 6 hours, respectively. After the cells were attached onto the bottom of the plate and formed a monolayer, the medium in the plate was removed. Fresh serum free mediums with different concentrations of a test sample were added to the plates, respectively, and 100 nM PMA was added to each plate to induce the cells to express great quantities of matrix metalloproteinase-2 and matrix metalloproteinase-9, and the plates were placed in a temperature of 37° C. for 6 hours. After that, the total RNA of the cells were extracted with the TRIzol reagent and reverse transcripted by a reverse transcriptase to synthesize cDNA. The synthesize cDNA was used as a template to perform GADPH, matrix metalloproteinase-2 and matrix metalloproteinase-9 PCR amplifications.
# HT 1080 cells = test: Wound healing assay and colony dispersion assay (cell migration); format: cell-based, Human
# Protocol: 8. Wound Healing Assay (Park et al., 2005; Hwang et al., 2006)
# Cells with appropriate cell numbers were cultured in a 24 well culturing plate for 12 hours. After the cells were attached to each bottom of each well of the plate and formed a monolayer, the medium in the well was removed. The middle of each bottom of each well having the monolayer thereon was scraped by a 200 μl tip to form a scratched line with a width of 1 mm. The cells in each well were washed with a PBS buffer twice, and fresh mediums with different concentrations of a test drug were added to the wells, respectively and cultured for 18 hours. After that, the upper medium in each well was removed. The cells were washed with a PBS buffer twice, fixed with 100% methanol and stained with a toluidine blue. The calculation for the migration rate of the cells was:
# 9. Colony Dispersion Assay (Hwang et al., 2006)
# Cells with appropriate cell numbers were cultured in a 24 well culturing plate for 12 hours. After the cells were attached to each bottom of each well of the plate and formed a monolayer, the medium in the well was removed. Fresh mediums with different concentrations of a test drug were added to the wells, respectively and cultured for 3 days. After that, the upper medium in each well was removed. Then, the cells were washed with a PBS buffer twice, fixed with 100% methanol and stained with a toluidine blue.
compound,measurement,setting,value
"NC(CCC(=O)NO)C(=O)O [DH, L-Glutamic acid γ-hydroxamate]",gene expression (mRNA) of matrix metalloproteinase-2,"[1]; HT 1080 cells, 0.4, 0.8, 1.2, and 1.6, 6 hours, RT-PCR",decreased
same,inhibition rate to the gene transcriptional expression of metalloproteinase-2 of a cancer cell,"[1]; about 0.1-2 mM, stated as embodiment, 'and/or' MMP-9",20-80%
same,pIC50,"HT 1080 cells; Homo sapiens, HT-1080, 0.4, 1.2, 2 and 2.8 mM, 18 hours",2.76
same,inhibition rate to cancer cell migration,"HT 1080 cells; about 0.1-3 mM, stated as embodiment",20-85%

# Source: patent US20120101163A1, “COMPOSITION FOR INHIBITING CANCER METASTASIS” (TAIPEI MEDICAL UNIVERSITY, priority 2010, published 2012)
